{
  "source": "paper PMC9024361",
  "about": "“Pharmacokinetics, Tissue Distribution, Metabolism and Excretion of a Novel COX-2 Inhibitor, Vitacoxib, in Rats” (Frontiers in Veterinary Science, 2022)",
  "key": {"[1]": {"assay": "Metabolite identification in plasma, bile, urine and feces (UPLC Q-TOF MS)", "assay_type": "in vivo, Wistar rats", "details": "rats; for Source (matrices in which the metabolite was detected): single oral 18 mg/kg vitacoxib, Q-TOF MS; for Share of the metabolite in urinary and fecal excretion: urine and feces, not quantified", "protocol": "Six male rats were placed in their own metabolic cages and orally administered a single dose of 18 mg/kg dose of vitacoxib (tablets crushed and dissolved in 0.5% CMC-Na, 6 mg/ml). Bile, fecal, and urine samples were collected from each animal in metabolic cages at 0~8, 8~23, 23~32, 32~48, 48~58, 58~72, 72~82, 82~96, and 96~128 h after administration. The total weight of urine and feces was recorded after collection. Feces samples were diluted with 3 volumes (v/w) of triple-distilled water and homogenized, and the homogenate was stored at −20°C until further analysis.\nChromatographic separation was performed using an ACQUITY UPLC^TM system (Waters Corporation, Milford, MA, USA). A Waters ACQUITY UPLC HSS T3 column (1.7 μm, 2.1 mm × 100 mm) was used for reversed-phase UPLC and the column temperature was maintained at 40°C. The flow rate of the mobile phase was 0.5 ml/min and the injection volume was 5 μl. Mobile phase A was 0.1% formic acid in water and mobile phase B was 0.1% formic acid in methanol. The column was eluted using a linear gradient (0 → 1 min, phase A 90%; 1 → 10 min, phase A 90% → 5%; 10 → 13.5 min, phase A 5% → 5%; and 13.5 → 15 min, phase A 5% → 90%).\nMS analysis was performed using a Xevo G2-S Q-TOF mass spectrometer. The eluent was not shunted but injected directly into the mass analysis system in the positive-ion mode. The source temperature was set at 120°C. The flow rate of the desolvation gas was 800 L/h at a temperature of 500°C. The capillary voltage was set at 3 kV with 35 V as the cone voltage. Methods to analyze different tissues and samples were developed and validated in our lab. Data were analyzed using Metabolynx^TM software (version 4.1), which could automatically identify metabolites by comparing treatment samples with the respective controls."}, "[2]": {"assay": "Plasma pharmacokinetics after a single oral dose", "assay_type": "in vivo", "details": "male, Wistar, rat, rats, single p.o. 18 mg/kg b.w., n = 5, plasma", "protocol": "(§1) Five male rats were administered a single dose of vitacoxib (18 mg/kg) obtained by crushing and dissolving vitacoxib tablets in 0.5% CMC-Na (6 mg/ml). Blood samples (0.3 ml) were collected via a cannula directly into heparinized tubes before drug administration and 5, 15, 30 min, and 1, 2, 3, 4, 6, 8, 10, 12, 24, 36, and 48 h after drug administration. The samples were centrifuged at 2,280 × g for 10 min as soon as possible and stored at −20°C until further analysis (within 21 days).\nVitacoxib in plasma samples was analyzed using an established and validated UPLC-MS/MS (Waters Acquity UPLC and Water Quattro Premier, Waters Co., USA) method using a procedure previously described by our group ([18]). The lower limit of quantification was 0.5 ng/ml and the calibration range of the method was 0.5–1,000 ng/ml. Noncompartmental analysis was performed to determine the pharmacokinetic parameters, as appropriate, using WinNonlin^TM (version 6.4, Certara, Princeton NJ, USA) computational software."}, "rats": {"tested_on": "rats", "assay": "Observation of adverse effects after a single oral dose", "assay_type": "in vivo, Wistar rats", "details": "single oral dose 18 mg/kg BW", "protocol": "as §1"}, "[3]": {"assay": "Tissue distribution after a single oral dose", "assay_type": "in vivo, Wistar rats", "details": "rats", "protocol": "Eighteen rats were administered a single oral dose (18 mg/kg BW) of vitacoxib (tablets crushed and dissolved in 0.5% CMC-Na, 6 mg/ml). Six rats were euthanized at each time point of 0.25, 6, and 24 h after dose administration. The brain, liver, heart, spleen, lungs, bladder, kidneys, gracilis muscle, gastrointestinal tract, large intestinal contents, small intestine, bone marrow, testes, epididymis, thymus gland, fat, and pancreas were collected and weighed. Each sample was diluted with 3 volumes (v/w) of triple-distilled water and homogenized, and the homogenate was stored at −20°C until further analysis. Vitacoxib in tissue samples was analyzed using UPLC-MS/MS by following a previously described procedure."}, "[4]": {"assay": "Urinary and fecal excretion of unchanged drug", "assay_type": "in vivo, Wistar rats", "details": "rats", "protocol": "Six male rats were placed in separate metabolic cages and administered a single oral dose of 18 mg/kg of vitacoxib (tablets were crushed and dissolved in 0.5% CMC-Na, 6 mg/ml). Urine and fecal samples were collected from each animal in metabolic cages at different time points at 2, 4, 6, 8, 10, 14, 24, 36, 48, 60, 72, 84, 96, 108, 120, 132, 144, 156, and 168 h after drug administration.\n(§2) Eight male rats with bile-duct cannulation were administered 18 mg/kg of vitacoxib (tablets crushed and dissolved in 0.5% CMC-Na, 6 mg/ml). Rats were housed in metabolism cages and bile samples were collected at 2, 4, 6, 8, 10, 14, 24, 36, 48, 60, and 72 h after drug administration. All samples were stored at −20°C until further analysis. […] Vitacoxib in urine, fecal, and bile samples was determined via validation UPLC-MS/MS using the procedure described for blood ([18])."}, "[5]": {"assay": "Bile excretion of unchanged drug in bile-duct cannulated rats", "assay_type": "in vivo, Wistar rats", "details": "single oral 18 mg/kg, 0~72 h", "protocol": "as §2"}, "SD rats": {"tested_on": "SD rats", "design": "method as in PMID 28238853, PMID 29601910", "details": "repeated dietary administration, cited from earlier work"}, "rats and mice": {"tested_on": "rats and mice", "design": "method as in PMID 30128300", "details": "cited from earlier work"}, "rabbits": {"tested_on": "rabbits", "design": "method as in PMID 28959651", "details": "cited from earlier work"}, "guinea pigs": {"tested_on": "guinea pigs", "design": "method as in PMID 28959651", "details": "cited from earlier work"}, "[6]": {"design": "method as in PMID 30076623", "details": "horses, 0.1 mg/kg bw; cited from earlier work"}, "COX-2 [7]": {"tested_on": "COX-2", "design": "method as in doi:10.11669/cpj.2013.20.011", "details": "dogs, preclinical trials; cited from earlier work"}, "COX-2 [8]": {"tested_on": "COX-2", "design": "method as in doi:10.11669/cpj.2013.20.011", "details": "rats, preclinical trials; cited from earlier work"}, "Sprague Dawley (SD) rats": {"tested_on": "Sprague Dawley (SD) rats", "details": "rat, in vivo; cited from earlier work"}, "[9]": {"tested_on": "Institute of Cancer Research (ICR) mice", "details": "mouse, in vivo; cited from earlier work"}, "[10]": {"details": "dog, in vivo, 2 mg/kg; cited from earlier work"}},
  "note": "Entries after “also recorded” stand apart in the source; their conditions may differ. Read-outs that look alike come from different tables or passages of the source.",
  "data": [
    {"smiles": "CS(=O)(=O)c1ccc(-n2cnc(Cl)c2-c2ccc(CO)cc2)nc1", "note": "[M1]", "values": [
      {"measurement": "Source (matrices in which the metabolite was detected)", "setting": "[1]", "result": "Plasma, bile, feces, and urine"},
      {"measurement": "Share of the metabolite in urinary and fecal excretion", "setting": "[1]", "result": "minor amount of the dose"}
    ]},
    {"smiles": "CS(=O)(=O)c1ccc(-n2cnc(Cl)c2-c2ccc(C(=O)O)cc2)nc1", "note": "[M2, 4-(4-chloro-1-(5-(methylsulfonyl)pyridin-2-yl)-1H-imidazol-5-yl) benzoic acid]", "values": [
      {"measurement": "Source (matrices in which the metabolite was detected)", "setting": "[1]", "result": "Bile, feces, and urine"},
      {"measurement": "Share of the metabolite in urinary and fecal excretion", "setting": "[1]; listed as carboxylic acid derivative", "result": "major metabolite"},
      {"measurement": "Share of the metabolite in urinary and fecal excretion", "setting": "[1]; listed as carboxylic acid metabolite", "result": "primary metabolite"}
    ]},
    {"smiles": "Cc1ccc(-c2c(Cl)ncn2-c2ccc(S(C)(=O)=O)cn2)cc1", "note": "[vitacoxib, 2-(4-chloro-5-p-tolyl-1H-imidazol-1-yl)-5-(methylsulfonyl) pyridine]", "values": [
      {"measurement": "Tmax", "setting": "[2]; plasma, 18 mg/kg", "result": "~5", "unit": "h"},
      {"measurement": "AUC(0-inf)", "setting": "[2]; 0 to infinity, read-out: AUCINF_obs", "result": "4930 ± 588", "unit": "ng·h/mL"},
      {"measurement": "AUC(0-t)", "setting": "[2]; 0 to last point", "result": "4900 ± 604", "unit": "ng·h/mL"},
      {"measurement": "k el", "setting": "[2]; noncompartmental, read-out: λz (elimination rate constant) (converted)", "result": "4.44e-05", "unit": "s⁻¹"},
      {"measurement": "Cmax", "setting": "[2]; read-out: Cmax (maximum plasma concentration)", "result": "450 ± 96.2", "unit": "ng/mL"},
      {"measurement": "MRT last", "setting": "[2]; read-out: MRTlast (mean residence time)", "result": "8.09 ± 1.72", "unit": "h"},
      {"measurement": "half-life", "setting": "[2]; read-out: T1/2λz (elimination half-life) (converted)", "result": "4.25 ± 0.3", "unit": "h"},
      {"measurement": "Adverse effects", "setting": "rats", "result": "No obvious or serious adverse effects; also recorded: no adverse effects"},
      {"measurement": "Crossing of the intestinal barrier", "setting": "[3]; single oral dose 18 mg/kg BW", "result": "could cross the intestinal barrier"},
      {"measurement": "Time by which vitacoxib was detected in most tissues", "setting": "[3]; single oral dose 18 mg/kg BW", "result": "≤ 15", "unit": "min"},
      {"measurement": "Concentration in most tissues by 24 h after administration", "setting": "[3]; single oral dose 18 mg/kg BW, 24 h", "result": "below the limit of detection"},
      {"measurement": "Presence in brain / crossing of blood-brain barrier", "setting": "[3]; single oral dose 18 mg/kg BW, 18 mg/kg", "result": "found in the brain; also recorded: cross the blood-brain barrier"},
      {"measurement": "Order of AUC(0~24h) values in different tissues", "setting": "[3]; single oral gavage dose 18 mg/kg bw", "result": "gastric contents > large intestinal contents > small intestinal contents > stomach > large intestine > pancreas > liver > small intestine > fat > lungs > spleen > brain > plasma > testes > kidneys > spinal cord > thymus > bones > heart > spermatic > skeletal muscles > bladder"},
      {"measurement": "Cumulative excretion in feces in unaltered form", "setting": "[4]; single oral 18 mg/kg, 0~168 h", "result": "4.7334% ± 1.6645%"},
      {"measurement": "Cumulative excretion in urine in unaltered form", "setting": "[4]; single oral 18 mg/kg, 0~168 h", "result": "0.0135% ± 0.0053%"},
      {"measurement": "Dose recovered in the urine or feces as the parent drug", "setting": "[4]; single oral dose", "result": "< 5", "unit": "%"},
      {"measurement": "Cumulative excretion in bile in unaltered form", "setting": "[5]", "result": "0.0261% ± 0.00627%"},
      {"measurement": "No-observed-adverse-effect-level (90 days)", "setting": "SD rats; 90 days", "result": 20, "unit": "mg/kg"},
      {"measurement": "No-observed-adverse-effect-level (180 days)", "setting": "SD rats; 180 days", "result": 6, "unit": "mg/kg BW/day"},
      {"measurement": "Mutagenicity", "setting": "rats and mice", "result": "No mutagenicity or teratogenicity"},
      {"measurement": "Teratogenicity", "setting": "rats and mice", "result": "No mutagenicity or teratogenicity"},
      {"measurement": "Skin irritation", "setting": "rabbits", "result": "does not cause skin irritation"},
      {"measurement": "Skin sensitization", "setting": "guinea pigs", "result": "does not cause skin irritation in rabbits or skin sensitization"},
      {"measurement": "T1/2λz", "setting": "[6]", "result": "7.39 ± 4.17", "unit": "h"},
      {"measurement": "COX-2 inhibition (specificity)", "setting": "COX-2 [7]", "result": "specifically inhibits COX-2"},
      {"measurement": "COX-2 inhibition (specificity)", "setting": "COX-2 [8]", "result": "specifically inhibits COX-2"},
      {"measurement": "Oral LD50", "setting": "Sprague Dawley (SD) rats", "result": "> 5,000 mg/kg body weight (BW)"},
      {"measurement": "Oral LD50", "setting": "[9]", "result": "> 5,000 mg/kg body weight (BW)"},
      {"measurement": "T1/2λz", "setting": "[10]", "result": "5. 87 ± 3. 37 h"}
    ]}
  ]
}
